According to PMC11249637, “Interaction of the Atypical Tetracyclines Chelocardin and Amidochelocardin with Renal Drug Transporters” (ACS Pharmacology & Translational Science, 2024):

Experiments:
mOct1 = biological target: T1, mOct1 (Mus musculus, UniProt O08966); experiment: Two-point inhibition of mOct1-mediated MPP uptake in transfected HEK293 cells; type: in vitro ADME; conditions: 1 and 10 μM; MPP 10 μM, 1 min
T1 construct: expressed in transfected cells; host or cells: HEK293
T1 sequence (O08966 1-556): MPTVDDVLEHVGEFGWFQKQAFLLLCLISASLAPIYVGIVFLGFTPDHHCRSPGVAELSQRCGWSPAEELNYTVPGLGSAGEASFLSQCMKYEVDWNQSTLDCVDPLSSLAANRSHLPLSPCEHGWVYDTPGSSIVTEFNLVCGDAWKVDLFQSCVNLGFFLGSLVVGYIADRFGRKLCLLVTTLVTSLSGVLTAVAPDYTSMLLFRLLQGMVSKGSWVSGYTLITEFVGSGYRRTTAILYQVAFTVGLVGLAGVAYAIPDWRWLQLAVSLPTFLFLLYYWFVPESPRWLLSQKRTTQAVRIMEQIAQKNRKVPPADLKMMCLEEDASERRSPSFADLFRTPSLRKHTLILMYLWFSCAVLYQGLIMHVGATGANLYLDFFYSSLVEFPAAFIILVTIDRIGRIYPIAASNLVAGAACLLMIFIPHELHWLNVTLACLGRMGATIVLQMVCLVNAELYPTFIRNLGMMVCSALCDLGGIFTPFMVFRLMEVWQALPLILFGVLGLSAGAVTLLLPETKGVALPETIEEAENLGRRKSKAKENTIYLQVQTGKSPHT
Method: (§1) Well-characterized mOct1-, mOct2-, mOat1-, mOat2-, mOat3-, mMate1-, hOAT1-, hOAT3-, hOAT4-, hMRP2-, mMdr1a- and mMdr1b-transfected HEK293 cells and the respective vector-transfected control HEK293 cells were used.[42],[51],[52] All HEK293 cells (transporter-transfected and vector-transfected) were cultured in DMEM (Sigma, high glucose, 10% FBS, 1% penicillin (10,000 Units/mL)/streptomycin (10 mg/mL)) at 37°C under 5% CO2 in humidified atmosphere. The cells were routinely checked for the absence of mycoplasma infection. For the preparation of HEK293 cell monolayers, 24-well plates were pretreated with a poly-D-lysine hydrobromide solution (0.1 mg/mL). […]
(§2) For the uptake assay, the growth medium was aspirated, and each well was rinsed three times with 0.5 mL of incubation buffer (HBSS supplemented with 20 mM HEPES, pH 7.4) and incubated for 20 min at 37 °C. […] Cells were solubilized with 0.6 mL of 1N NaOH overnight and transferred into scintillation vials. ^3H and ^14C contents were measured after the addition of 2.5 mL of scintillator in a liquid scintillation counter.
(§3) The cellular protein amount was determined in parallel for each cell line (vector- and transporter-transfected) from six wells in a different 24-well reference plate using the Bradford method. […]
(§4) The inhibitory effect (I(%)) was calculated according to the formula: [drawing 5] […]

hOAT1 = biological target: T2, hOAT1 (Homo sapiens, UniProt Q4U2R8); experiment: Two-point inhibition of hOAT1-mediated PAH uptake in transfected HEK293 cells; type: in vitro ADME; conditions: PAH 10 μM, 1 min
T2 construct: expressed in transfected cells; host or cells: HEK293
T2 sequence (Q4U2R8 1-563): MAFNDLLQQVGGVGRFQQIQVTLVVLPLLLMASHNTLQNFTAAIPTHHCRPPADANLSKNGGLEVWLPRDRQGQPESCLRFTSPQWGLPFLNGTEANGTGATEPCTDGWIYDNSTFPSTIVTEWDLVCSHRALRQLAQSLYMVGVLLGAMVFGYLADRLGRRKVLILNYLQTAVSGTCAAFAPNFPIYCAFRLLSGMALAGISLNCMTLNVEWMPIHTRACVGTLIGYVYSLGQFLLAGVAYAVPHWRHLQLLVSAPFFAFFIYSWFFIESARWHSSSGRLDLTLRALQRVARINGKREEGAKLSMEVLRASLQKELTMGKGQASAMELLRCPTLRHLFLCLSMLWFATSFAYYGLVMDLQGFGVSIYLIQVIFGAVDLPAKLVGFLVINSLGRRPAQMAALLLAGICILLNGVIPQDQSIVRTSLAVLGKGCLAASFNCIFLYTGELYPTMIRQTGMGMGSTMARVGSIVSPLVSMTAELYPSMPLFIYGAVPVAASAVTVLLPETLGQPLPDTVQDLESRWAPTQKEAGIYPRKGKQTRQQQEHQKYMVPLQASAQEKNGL
Method: as §1, §2, §3, §4

Compound	inhibitory effect on mOct1 (in words) (mOct1)	inhibitory effect on hOAT1 (in words) (hOAT1; 1 and 10 μM)	inhibition at 10 µM (hOAT1; HEK293, at 10 μM, read-out: inhibitory effect on hOAT1) [%]
Cc1ccc2c(C)c3c(c(O)c2c1O)C(=O)[C@@]1(O)C(=O)C(C(N)=O)=C(O)[C@@H](N)[C@H]1C3 [CDCHD, amidochelocardin]	slight inverse inhibitory effect	No inhibitory effect	–
CC(=O)C1=C(O)[C@@H](N)[C@H]2Cc3c(c(O)c4c(O)c(C)ccc4c3C)C(=O)[C@@]2(O)C1=O [CHD, chelocardin]	No inhibitory effect	–	~50
